Inhibition and EC50 data for ten compounds are collected here from patent US9951044B2, “Quinazoline derivatives and their use as DNA methyltransferase inhibitors” (PIERRE FABRE MEDICAMENT, priority 2013, dated 2018).

Each structure is given as a SMILES string.

For experiment [1], the target named is T1, His-DNMT1 (182 kDa, human) (Homo sapiens, UniProt P26358).
T1 construct: His; made in house
In words: DNMT1 assay ([methyl-3H] SAM Flashplate). The class given is biochemical. The conditions noted are these: for inhibition at 100 µM: compound at 100 μM, read-out: DNMT1 (% of inhibition) 100 μM; for inhibition at 32 µM: compound at 32 μM, read-out: DNMT1 (% of inhibition) 32 μM. On the procedure: His-DNMT1 (182 kDa, human) was cloned, expressed and purified as described in Halby et al. (ChemBioChem 2012, 13, 157-65). The reaction was performed in a 10 μL total reaction volume in low volume NBS™ 384-well microplates (Corning), containing the tested compound (up to 1% DMSO), 1 μM of a SAM/[methyl-^3H] SAM (3 TBq/mmol, PerkinElmer) mix in a ratio of 3-to-1 (isotopic dilution 1*:3), 0.3 μM of biotinylated hemimethylated DNA duplex (5′-GATmCGCmCGATGmCGmCGAATmCGmCGAT mCGATGmCGAT-3′ and BIOT-5′-[…] ATC-3′), and 90 nM of DNMT1 in methylation buffer (20 mM HEPES pH 7.2, 1 mM EDTA, 50 mM KCl, 25 μg/mL BSA). The reaction was incubated at 37° C. for 2 hours. 8 μL are then transferred into a streptavidin 96-well scintillant coated Flashplate™ (PerkinElmer) containing 190 μL of 20 μM SAH in 50 mM Tris-HCl pH 7.4. The Flashplate™ was agitated at room temperature for 1 hour, washed three times with 200 μL of 0.05% Tween®-20 in 50 mM Tris-HCl pH 7.4, and read in 200 μL of 50 mM Tris-HCl pH 7.4 on TopCount NXT (PerkinElmer).

The target of experiment [2] is T2, human C-terminal DNMT3A (a.a. 623-908) (Homo sapiens, UniProt Q9Y6K1).
T2 construct: The human C-terminal DNMT3A (a.a. 623-908); made in house
In words: DNMT3A assay (restriction-based fluorescence). The class given is biochemical. Conditions: for inhibition at 32 µM: compound at 32 μM, read-out: DNMT3A (% of inhibition) 32 μM; for inhibition at 10 µM: compound at 10 μM, read-out: DNMT3A (% of inhibition) 10 μM; for inhibition at 20 µM: compound at 20 μM; for EC50: concentration range in triplicates. From the text:
DNMT3A enzyme inhibition was adapted from the restriction-based fluorescence assay protocol described in Ceccaldi et al. (ChemBioChem 2011, 12, 1337-45). Briefly, a 5′-labelled biotin oligonucleotide is hybridized to its complementary strand labelled with 6-carboxyfluorescein at the 3′-end into a 384 well microplate (black Optiplates; Perkin Elmer) pre-coated with avidin. The duplex contains a unique CpG site overlapping with a restriction site of a methylation sensitive restriction enzyme. The human C-terminal DNMT3A (a.a. 623-908), produced as described in Gros et al. (Nucleic Acids Research 2013 Aug. 25), was added in each well (200 ng/well) and mixed with the chemical compounds at desired concentrations and freshly prepared AdoMet (20 μM final concentration) to start the reaction in a total volume of 50 μL. After 1 hour incubation at 37° C. each well were washed three times with PBS, Tween-20 0.05%, NaCl (500 mM) and three more times with PBST. Specific fluorescent signals were detected with the methylation-sensitive restriction enzyme HpyCH4IV (NEB) as described and measured on a Perkin Elmer Envision detector. The percentage of inhibition is reported. The formula used to calculate the percentage of inhibition is [(X−Y)/X]×100, where X is the signal determined in the absence of the inhibitor and Y is the signal obtained in the presence of the inhibitor. The concentration at which 50% of efficacy of inhibition is observed (EC50) was determined by analysis of a concentration range of the tested compound in triplicates. The non-linear regression fittings with sigmoidal dose-response (variable slope) were performed with GraphPad Prism 4.03 (GraphPad Software).

Usually inhibition stands for the share of the control response that was lost under treatment. One may read the EC50 as the concentration needed to bring the measured effect to its halfway point. Low values mean an effect from little substance, high ones a need for much substance.

T2 sequence (Q9Y6K1 627-912 limits assumed): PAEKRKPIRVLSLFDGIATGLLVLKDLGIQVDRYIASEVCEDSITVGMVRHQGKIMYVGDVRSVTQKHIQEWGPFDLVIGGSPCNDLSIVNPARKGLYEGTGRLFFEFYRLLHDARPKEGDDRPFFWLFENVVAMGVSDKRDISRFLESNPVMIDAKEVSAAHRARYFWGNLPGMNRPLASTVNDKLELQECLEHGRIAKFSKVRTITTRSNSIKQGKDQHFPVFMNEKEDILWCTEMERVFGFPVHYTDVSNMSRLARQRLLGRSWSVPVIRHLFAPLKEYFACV
T1 sequence (P26358 whole entry): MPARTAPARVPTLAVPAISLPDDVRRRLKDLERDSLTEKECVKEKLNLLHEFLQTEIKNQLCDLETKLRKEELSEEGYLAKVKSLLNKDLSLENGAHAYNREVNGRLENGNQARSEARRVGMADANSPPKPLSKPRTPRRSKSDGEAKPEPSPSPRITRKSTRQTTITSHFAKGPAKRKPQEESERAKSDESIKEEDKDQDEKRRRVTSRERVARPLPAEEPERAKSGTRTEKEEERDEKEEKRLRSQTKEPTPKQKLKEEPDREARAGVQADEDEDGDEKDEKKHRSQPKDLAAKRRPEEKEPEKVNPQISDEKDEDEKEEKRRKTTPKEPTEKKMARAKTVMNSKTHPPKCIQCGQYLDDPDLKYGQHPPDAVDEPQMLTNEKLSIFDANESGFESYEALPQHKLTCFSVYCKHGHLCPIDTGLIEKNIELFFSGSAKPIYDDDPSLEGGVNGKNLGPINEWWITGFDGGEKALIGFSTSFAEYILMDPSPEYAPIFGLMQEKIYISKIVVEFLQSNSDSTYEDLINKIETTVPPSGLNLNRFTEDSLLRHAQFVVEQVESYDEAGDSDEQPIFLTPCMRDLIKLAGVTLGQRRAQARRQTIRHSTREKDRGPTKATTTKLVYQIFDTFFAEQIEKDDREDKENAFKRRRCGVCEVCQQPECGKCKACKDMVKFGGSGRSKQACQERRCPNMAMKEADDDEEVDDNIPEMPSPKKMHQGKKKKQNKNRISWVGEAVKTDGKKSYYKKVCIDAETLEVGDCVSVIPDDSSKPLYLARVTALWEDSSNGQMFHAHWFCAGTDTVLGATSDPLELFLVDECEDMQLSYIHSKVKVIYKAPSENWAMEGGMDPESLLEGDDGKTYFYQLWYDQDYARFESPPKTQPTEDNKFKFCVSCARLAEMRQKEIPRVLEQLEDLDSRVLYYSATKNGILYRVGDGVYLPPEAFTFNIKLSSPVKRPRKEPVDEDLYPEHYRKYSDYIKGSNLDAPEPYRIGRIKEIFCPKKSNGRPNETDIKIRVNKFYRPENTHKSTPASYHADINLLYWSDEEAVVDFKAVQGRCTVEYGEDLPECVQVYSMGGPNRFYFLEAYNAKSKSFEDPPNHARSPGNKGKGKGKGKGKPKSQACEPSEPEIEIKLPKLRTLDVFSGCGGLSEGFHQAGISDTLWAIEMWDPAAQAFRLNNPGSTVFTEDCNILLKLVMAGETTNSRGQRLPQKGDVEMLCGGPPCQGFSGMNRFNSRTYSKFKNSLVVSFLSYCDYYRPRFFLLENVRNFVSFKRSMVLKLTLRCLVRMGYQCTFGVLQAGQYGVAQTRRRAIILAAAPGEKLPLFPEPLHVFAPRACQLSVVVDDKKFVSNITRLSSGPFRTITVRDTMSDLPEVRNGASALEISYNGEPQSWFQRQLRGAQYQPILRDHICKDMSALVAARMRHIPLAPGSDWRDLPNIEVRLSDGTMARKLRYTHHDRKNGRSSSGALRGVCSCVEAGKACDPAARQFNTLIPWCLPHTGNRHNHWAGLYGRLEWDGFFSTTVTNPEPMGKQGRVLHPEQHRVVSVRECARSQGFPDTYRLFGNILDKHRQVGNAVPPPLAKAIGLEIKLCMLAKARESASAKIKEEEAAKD

Turning to `c1ccc(CCCNc2ncnc3cc(OCC4CCN(CCNc5ccnc6ccccc56)C4)ccc23)cc1` (stereo not shown) [Compound AM, 4-((3-phenylpropyl)amino)-7-((1-(2-(quinolin-4-ylamino)ethyl)pyrrolidin-3-yl)methoxy)quinazoline], the inhibition at 100 µM in experiment [1] worked out at 100%. Further, the inhibition at 32 µM in experiment [2] came to 81%.

With `c1ccc(CCCNc2ncnc3cc(OCCCNCCCNc4ccnc5ccccc45)ccc23)cc1` [Compound A], in experiment [1], the inhibition at 100 µM turned out to be 97%. Besides, in experiment [2], the inhibition at 10 µM came out at 60%, 20 µM produced 76% inhibition, the inhibition at 32 µM turned out to be 85% and the 50% effective concentration (EC50) worked out at 10 µM.

As for `c1ccc(CCCNc2ncnc3cc(OCCCNCCCCNc4ccnc5ccccc45)ccc23)cc1` [Compound B], the inhibition at 100 µM in experiment [1] came out at 86%. In addition, the inhibition at 20 µM in experiment [2] stood at 67%.

Consider `c1ccc(CCCNc2ncnc3cc(OCCCNCCNc4ccnc5ccccc45)ccc23)cc1` [Compound F, 7-(3-((2-(quinolin-4-ylamino)ethyl)amino)propyloxy)-4-((3-phenylpropyl)amino)quinazoline], for which the inhibition at 100 µM in experiment [1] was determined as 90%. Besides, in experiment [2], the inhibition at 10 µM came out at 59%, at 20 µM the inhibition was 76%, the inhibition at 32 µM was found to be 87% and the EC50 amounted to 10 µM.

As to `CCCNc1ncnc2cc(OCC3CCN(CCNc4ccnc5ccccc45)CC3)ccc12` [Compound H, 4-propylamino-7-((1-(2-(quinolin-4-ylamino)ethyl)piperidin-4-yl)methoxy)quinazoline], the inhibition at 100 µM in experiment [1] was determined as 94.9%. In addition, in experiment [2], the inhibition at 10 µM came out at 28%, the inhibition at 20 µM worked out at 44% and the inhibition at 32 µM was determined as 69%.

In the case of `Nc1ncnc2cc(OCC3CCN(CCNc4ccnc5ccccc45)CC3)ccc12` [Compound I, 4-amino-7-((1-(2-(quinolin-4-ylamino)ethyl)piperidin-4-yl)methoxy)quinazoline], the inhibition at 100 µM in experiment [1] came out at 99.3%. For the same compound, in experiment [2], the inhibition at 10 µM was determined as 16%, the inhibition at 20 µM was determined as 32% and the inhibition at 32 µM is 68%.

Consider `c1ccc(CCCNc2ncnc3cc(OCC4CCN(CCNc5ccncc5)CC4)ccc23)cc1` [Compound J, 4-(3-phenylpropylamino)-7-((1-(2-(pyridin-4-ylamino)ethyl)piperidin-4-yl)methoxy)quinazoline], for which the inhibition at 100 µM in experiment [1] came to 33.7%. Besides, in experiment [2], the inhibition at 10 µM stood at 47%, the inhibition at 20 µM amounted to 65% and the inhibition at 32 µM turned out to be 72%.

For `c1ccc(CCNc2ncnc3cc(OCC4CCN(CCNc5ccnc6ccccc56)CC4)ccc23)cc1` [Compound O, 4-(3-phenethylamino)-7-((1-(2-(quinolin-4-ylamino)ethyl)piperidin-4-yl)methoxy)quinazoline], in experiment [1], the inhibition at 32 µM was determined as 38% and the inhibition at 100 µM amounted to 98.4%. For the same compound, in experiment [2], the inhibition at 10 µM was found to be 80% and the inhibition at 32 µM was determined as 99%.

With `c1ccc(CNc2ncnc3cc(OCC4CCN(CCNc5ccnc6ccccc56)CC4)ccc23)cc1` [Compound P, 4-(3-benzylamino)-7-((1-(2-(quinolin-4-ylamino)ethyl)piperidin-4-yl)methoxy)quinazoline], in experiment [1], the inhibition at 32 µM is 26% and the inhibition at 100 µM was 22%. Also, in experiment [2], the inhibition at 10 µM was found to be 43%; the inhibition at 32 µM came out at 81%; the midpoint of the response, the EC50, lay at 13.1 µM.

For the compound `Cc1cc(NCCNc2ncnc3cc(OCC4CCN(CCNc5ccnc6ccccc56)CC4)ccc23)nc(N)n1` [Compound Q, 6-methyl-N^4-(2-((7-((1-(2-(quinolin-4-ylamino)ethyl)piperidin-4-yl)methoxy)quinazolin-4-yl)amino)ethyl)pyrimidine-2,4-diamine], in experiment [1], the inhibition at 32 µM came to 74% and the inhibition at 100 µM was found to be 99.6%. Besides, in experiment [2], the inhibition at 10 µM was determined as 61%, the inhibition at 32 µM was found to be 68% and the EC50 is 5.7 µM.
